In PubChem BioAssay AID1963854 (Molecular Pharmacology Branch, DTP, NCI, 2024):

System: 186277-243-T-J2-PDC complex spheroid viability
Test: Anticancer human tumor 186277-243-T-J2-PDC patient-derived colon adenocarcinoma cell line growth inhibition [POLQ]
Conditions: for IC50: curve of first compound; for viability, T/C: stronger effect = lower value
Method in brief: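 Patient-derived tumour cells were co-cultured with HUVEC and mesenchymal stem cells as multicellular spheroids at 37 °C. They were treated with POLQ inhibitors (novobiocin, ART-558, RP6685) alone or combined with other agents. Top concentrations were at or near clinical Cmax (otherwise 10 microM; SN-38 at 1 microM), decreasing in half-log steps.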
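Note: spheroids exposed to compounds for seven days.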
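Throughout, for viability, T/C: 100% = DMSO vehicle control viability.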

Question: `COc1cccc(OCCCN)c1-c1cc(Nc2cnc(C#N)cn2)n[nH]1` + COC1C(OC(N)=O)C(O)C(Oc2ccc3c(O)c(NC(=O)c4ccc(O)c(CC=C(C)C)c4)c(=O)oc3c2C)OC1(C)C was tested. Which IC50 (second compound 0.0316 µM) did it give?
Answer: < 3.16 nM

Question: And the IC50 (second compound 0.1 µM)?
Answer: < 3.16 nM

Question: And the IC50 (second compound 0.316 µM)?
Answer: < 3.16 nM

Question: And the IC50 (second compound 1 µM)?
Answer: < 3.16 nM

Question: What about the IC50 (second compound 3.16 µM) of the same compound?
Answer: < 3.16 nM

Question: And the IC50 (second compound 10 µM)?
Answer: < 3.16 nM

Question: And the viability, T/C (second compound 0.0316 µM, first compound 0.00316 µM)?
Answer: 8.14%

Question: And the viability, T/C (second compound 0.0316 µM, first compound 0.01 µM)?
Answer: 5.13%

Question: And the viability, T/C (second compound 0.0316 µM, first compound 0.0316 µM)?
Answer: 4.48%

Question: And the viability, T/C (second compound 0.0316 µM, first compound 0.1 µM)?
Answer: 4.86%

Question: And the viability, T/C (second compound 0.0316 µM, first compound 0.316 µM)?
Answer: 4.49%

Question: What about the viability, T/C (second compound 0.0316 µM, first compound 1 µM) of the same compound?
Answer: 5.84%

Question: What about the viability, T/C (second compound 0.1 µM, first compound 0.00316 µM) of the same compound?
Answer: 9.53%

Question: And the viability, T/C (second compound 0.1 µM, first compound 0.01 µM)?
Answer: 5.58%

Question: And the viability, T/C (second compound 0.1 µM, first compound 0.0316 µM)?
Answer: 4.93%

Question: And the viability, T/C (second compound 0.1 µM, first compound 0.1 µM)?
Answer: 4.32%

Question: What about the viability, T/C (second compound 0.1 µM, first compound 0.316 µM) of the same compound?
Answer: 4.26%

Question: What about the viability, T/C (second compound 0.1 µM, first compound 1 µM) of the same compound?
Answer: 5.58%

Question: And the viability, T/C (second compound 0.316 µM, first compound 0.00316 µM)?
Answer: 9.04%

Question: And the viability, T/C (second compound 0.316 µM, first compound 0.01 µM)?
Answer: 5.2%

Question: And the viability, T/C (second compound 0.316 µM, first compound 0.0316 µM)?
Answer: 5.3%

Question: What about the viability, T/C (second compound 0.316 µM, first compound 0.1 µM) of the same compound?
Answer: 4.89%

Question: What about the viability, T/C (second compound 0.316 µM, first compound 0.316 µM) of the same compound?
Answer: 4.61%

Question: What about the viability, T/C (second compound 0.316 µM, first compound 1 µM) of the same compound?
Answer: 5.48%

Question: What about the viability, T/C (second compound 1 µM, first compound 0.00316 µM) of the same compound?
Answer: 8.31%

Question: And the viability, T/C (second compound 1 µM, first compound 0.01 µM)?
Answer: 6.44%

Question: What about the viability, T/C (second compound 1 µM, first compound 0.0316 µM) of the same compound?
Answer: 4.79%

Question: And the viability, T/C (second compound 1 µM, first compound 0.1 µM)?
Answer: 4.46%

Question: And the viability, T/C (second compound 1 µM, first compound 0.316 µM)?
Answer: 4.72%

Question: What about the viability, T/C (second compound 1 µM, first compound 1 µM) of the same compound?
Answer: 5.47%

Question: And the viability, T/C (second compound 3.16 µM, first compound 0.00316 µM)?
Answer: 7.66%

Question: What about the viability, T/C (second compound 3.16 µM, first compound 0.01 µM) of the same compound?
Answer: 5.09%

Question: And the viability, T/C (second compound 3.16 µM, first compound 0.0316 µM)?
Answer: 4.84%

Question: What about the viability, T/C (second compound 3.16 µM, first compound 0.1 µM) of the same compound?
Answer: 4.62%

Question: What about the viability, T/C (second compound 3.16 µM, first compound 0.316 µM) of the same compound?
Answer: 4.32%

Question: What about the viability, T/C (second compound 3.16 µM, first compound 1 µM) of the same compound?
Answer: 5.85%

Question: And the viability, T/C (second compound 10 µM, first compound 0.00316 µM)?
Answer: 6.16%

Question: What about the viability, T/C (second compound 10 µM, first compound 0.01 µM) of the same compound?
Answer: 5.21%

Question: What about the viability, T/C (second compound 10 µM, first compound 0.0316 µM) of the same compound?
Answer: 4.7%

Question: And the viability, T/C (second compound 10 µM, first compound 0.1 µM)?
Answer: 4.65%

Question: And the viability, T/C (second compound 10 µM, first compound 0.316 µM)?
Answer: 5.39%

Question: What about the viability, T/C (second compound 10 µM, first compound 1 µM) of the same compound?
Answer: 6.57%
